Data as given in US20240158693A1, “Probe for Hydrogen Sulfide Detection, Method for Manufacturing Same, and Composition for Hydrogen Sulfide Detection, Comprising Same” (Korea Institute of Ocean Science &Technology, priority 2020, published 2024).
Counter-ions that a name gives are not always drawn. Values belong to the compound of their own block, whether it stands above or below them.

Legend:
[1] = Optimization of sensing conditions for H2S detection (biothiols with and without 2-FBBA)
Procedure: The samples containing HSA (100 μM) and each biothiol (H2S 100 μM, Cys 250 μM, Hcy 100 μM, and GSH 10 μM) with and without 2-formyl benzene boronic acid (2-FBBA) in SPB (pH 7.4, 20 mM) were incubated for 15 minutes at 25° C. KF-DNBS (25 μM, 10% DMSO) was added to the samples followed by the measurement of fluorescence spectra under excitation at 420 nm at 37° C.

[2] = Selectivity of KF-DNBS toward H2S over other biological analytes
Procedure: Next, the selectivity of KF-DNBS with HSA toward H2S was investigated using various biologically relevant species, including biothiols (Cys, Hcy, and GSH), reactive sulfur species (RSS), and reactive oxygen species (ROS) (HSO4^−, SO4^2−, SO3^2−, S2O3^2−, SCN^−, H2O2, and ClO^−), and anions (CN^−, F^−, Br^−, NO3^−, NO2^−, HCO3^−, and CH3CO2^−).
A blank containing no analyte and a sample containing each analyte (H2S 100 μM, Cys 250 μM, Hcy 100 μM, GSH 10 μM, HSO4^− 100 μM, SO4^2− 100 μM, SO3^2− 100 μM, S2O3^2− 100 μM, SCN^− 100 μM, CN^− 100 μM, F^− 100 μM, Br^− 100 μM, NO3^− 100 μM, NO2^− 100 μM, HCO3^− 100 μM, CH3CO2^− 100 μM, H2O2 100 μM, ClO^− 100 μM) were prepared followed by the addition of HSA (100 μM) and 2-FBBA (2 mM) to SPB (pH 7.4, 20 mM). After incubation for 15 minutes at 25° C., KF-DNBS (25 μM, 10% DMSO) was added to each sample, and then fluorescence intensity at 500 nm was recorded using the fluorescence spectrophotometer under excitation at 420 nm at 37° C. The experiment was conducted in triplicate.

[3] = Sensing behavior of KF-DNBS with HSA as selective H2S probe (H2S titration, LOD)
Procedure: The experiment was carried out in triplicate. The limit of detection (LOD) was calculated using 3σ/slope based on the titration experiment, in which σ was the standard deviation of the blank measurements and the slope value was obtained from a plot of the fluorescence intensity versus H2S concentration.

[4] = target: HSA (Homo sapiens, UniProt P02768); test: Comparison of fluorescence change of KF and KF-DNBS with HSA; conditions: SPB pH 7.4, excitation 420 nm
Procedure: Stock solutions of KF and KF-DNBS were prepared in DMSO, and a stock solution of HSA was prepared in distilled water. Blanks, each containing only KF or KF-DNBS (25 μM, 10% DMSO), and samples, each containing KF or KF-DNBS (25 μM, 10% DMSO) with HSA (100 μM) in sodium phosphate buffer (SPB, pH 7.4, 20 mM), were prepared. Fluorescence spectra were then recorded using the fluorescence spectrophotometer under excitation at 420 nm.

[5] = KF-DNBS 25 μM with HSA 100 μM, 2-FBBA 2 mM, SPB pH 7.4

HSA, sequence (P02768 25-609): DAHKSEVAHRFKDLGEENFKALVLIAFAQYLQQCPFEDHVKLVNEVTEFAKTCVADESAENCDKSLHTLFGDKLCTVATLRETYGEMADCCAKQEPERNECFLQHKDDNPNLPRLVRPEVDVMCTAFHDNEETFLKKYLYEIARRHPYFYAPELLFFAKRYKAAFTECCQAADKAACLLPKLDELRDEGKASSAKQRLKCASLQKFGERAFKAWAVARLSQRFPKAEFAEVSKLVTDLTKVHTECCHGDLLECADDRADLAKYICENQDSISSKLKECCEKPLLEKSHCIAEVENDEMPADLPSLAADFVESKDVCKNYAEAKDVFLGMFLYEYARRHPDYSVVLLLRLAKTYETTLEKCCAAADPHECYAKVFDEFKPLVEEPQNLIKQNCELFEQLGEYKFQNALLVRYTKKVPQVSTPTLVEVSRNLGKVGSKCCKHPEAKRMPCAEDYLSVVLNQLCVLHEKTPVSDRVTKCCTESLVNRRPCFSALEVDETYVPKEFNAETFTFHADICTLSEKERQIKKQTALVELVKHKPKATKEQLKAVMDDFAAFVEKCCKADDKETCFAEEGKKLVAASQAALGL

Compound: 2-formyl benzene boronic acid [2-FBBA, reference compound]
- masking of the reactivity of Cys and Hcy upon KF-DNBS ([1]; 2-FBBA 2 mM, Cys 250 μM, Hcy 100 μM, HSA 100 μM): completely block

Compound: CCN(CC)c1ccc(-c2cc3c(s2)c(-c2ccc(OS(=O)(=O)c4ccc([N+](=O)[O-])cc4[N+](=O)[O-])cc2)cc(=O)n3C)cc1 (as salt: benzenesulfonate) [KF-DNBS, 4-(2-(4-(diethylamino)phenyl)-4-methyl-5-oxo-4,5-dihydrothieno[3,2-b]pyridin-7-yl)phenyl 2,4-dinitrobenzenesulfonate]
- melting point: 96 to 98 °C

Compound: CCN(CC)c1ccc(-c2cc3c(s2)c(-c2ccc(OS(=O)(=O)c4ccc([N+](=O)[O-])cc4[N+](=O)[O-])cc2)cc(=O)n3C)cc1 [KF-DNBS, 4-(2-(4-(diethylamino)phenyl)-4-methyl-5-oxo-4,5-dihydrothieno[3,2-b]pyridin-7-yl)phenyl 2,4-dinitrobenzenesulfonate]
- fluorescence change induced by Cys and Hcy ([1]; KF-DNBS 25 μM with HSA 100 μM, Cys 250 μM, Hcy 100 μM, without 2-FBBA): noticeable fluorescence change
- fluorescence intensity at 500 nm on addition of H2S ([1]; KF-DNBS 25 μM with HSA 100 μM, H2S 100 μM, SPB pH 7.4, without 2-FBBA): increased significantly
- selectivity to H2S over other biothiols ([1]; KF-DNBS with HSA in the presence of 2-FBBA (2 mM)): superior selectivity
- fluorescence enhancement at 500 nm with various analytes ([2]; KF-DNBS 25 μM, HSA 100 μM, 2-FBBA 2 mM, SPB pH 7.4, 18 analytes): remarkable fluorescence enhancement was observed only for H2S
- selectivity toward H2S ([2]; KF-DNBS with HSA and masking reagent 2-FBBA, biothiols, RSS, ROS, anions): high selectivity
- H2S concentration range of linear fluorescence increase [3, 5]: 5 to 100 µM
- detection limit (3σ/slope) for H2S [3, 5]: 3.2 µM
- time for fluorescence intensity at 500 nm to reach the maximum value ([3]; KF-DNBS 25 μM, HSA 100 μM, 2-FBBA 2 mM, SPB pH 7.4, H2S added, 37° C.): ≤ 20 min
- H2S response in various buffer conditions ([3]; KF-DNBS with HSA, H2S 100 μM, pH 5 to pH 9, 20 mM): worked well
- fluorescence in the presence or absence of HSA ([4]; 25 μM, 10% DMSO, HSA 100 μM): weak fluorescence

- melting point: 250 to 251 °C
- fluorescence shift by addition of HSA ([4]; 25 μM, 10% DMSO, HSA 100 μM): shifted slightly from 550 to 500
- HSA concentration range of linear fluorescence increase [4]: 5 to 50 µM
Compound: CCN(CC)c1ccc(-c2cc3c(s2)c(-c2ccc(O)cc2)cc(=O)n3C)cc1 [KF, 2-(4-(diethylamino)phenyl)-7-(4-hydroxyphenyl)-4-methylthieno[3,2-b]pyridin-5(4H)-one]
